Assay results from US20160060602A1, “FUSION MIXTURE” (FORSCHUNGSZENTRUM JÜLICH GMBH, priority 2013, published 2016).

Tested on: MDA-MB-231 cancer cells
Test: Doxorubicin delivery into cancer cells (fluorescence microscopy)
Format: cell-based
Conditions: MDA-MB-231 cells, 10-minute incubation, same amount of doxorubicin (2 μg)
Protocol: The components of fusion liposomes, DOTAL (molecules of type A) and Doxorubicin (molecules of type B), were mixed at a ratio of 1:0.1 mol/mol from 1 mg/ml parent solutions in chloroform.
Following homogenization of the lipid molecules with the aromatic doxorubicin, the organic solvent was removed under vacuum. The dried mixture was placed in 20 mM HEPES solution having a pH of 7.4 and homogenized in an ultrasonic bath for 20 minutes. The final concentration of the fusion mixture was set to 2 mg/ml. After a dilution of 1/100 v/v in DMEM medium, 500 μl of the fusion mixture was added to approximately 100,000 adherent MDA-MB-231 cancer cells and incubated for 10 minutes at 37° C.
A further cell sample was incubated with the same amount of doxorubicin (2 μg) in culture medium without fusion mixture for control purposes. The conventional dosage is 1 mg/ml.
In addition, doxorubicin was introduced into neutral DOPC liposomes (without molecules of type A) (DOPC:Dox at a ratio of 1:0.1 mol/mol) and added to adherent cells in the same concentration as in the other sample (2 μg/ml). […] The results were then compared to each other.

SMILES: COc1cccc2c1C(=O)c1c(O)c3c(c(O)c1C2=O)C[C@@](O)(C(=O)CO)C[C@@H]3O[C@H]1C[C@H](N)[C@H](O)[C@H](C)O1 [free doxorubicin, doxorubicin]
- doxorubicin uptake (fluorescent signal in cells): low fluorescent signal
